{
  "source": "patent US9125939B2",
  "about": "“Carbostyril derivatives and mood stabilizers for treating mood disorders” (Otsuka Pharmaceutical Co., Ltd., priority 2003, dated 2015)",
  "key": {"[1]": {"tested_on": "acute manic or mixed bipolar episodes", "details": "cotherapy vs monotherapy"}, "[2]": {"tested_on": "acute mania in adolescents with bipolar disorder", "assay": "double-blind, randomized, placebo-controlled study as adjunctive treatment to divalproex for adolescent mania (Examples 7 and 8)", "format": "in vivo, human"}, "[3]": {"details": "DVP + about 10 mg/day, 6 weeks, vs DVP+placebo"}},
  "data": [
    {"smiles": "O=C1CCc2ccc(OCCCCN3CCN(c4cccc(Cl)c4Cl)CC3)cc2N1", "note": "[aripiprazole, 7-{4-[4-(2,3-dichlorophenyl)-1-piperazinyl]butoxy}-3,4-dihydro-2(1H)-quinolinone]", "values": [
      {"measurement": "HAMD-21 total scores", "setting": "[1]", "value": "total scores more than monotherapy"},
      {"measurement": "YMRS response rate", "setting": "[2]; [3]", "value": "significantly greater"},
      {"measurement": "reduction in YMRS scores from baseline to endpoint", "setting": "[2]; [3]", "value": "greater reduction"},
      {"measurement": "Sedation, rated as mild or moderate", "setting": "[2]; DVP combination vs DVP+placebo", "value": "more common"},
      {"measurement": "safety measures, group differences from baseline to endpoint", "setting": "[2]; DVP combination vs DVP+placebo", "value": "No significant group differences"},
      {"measurement": "tolerability in combination with DVP", "setting": "[2]; treatment of mania", "value": "well tolerated"}
    ]}
  ]
}
